Test system: NCI-H211 tumor spheroids, viability percent test/control
Assay: Anticancer human tumor NCI-H211 cell line growth inhibition;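 note: spheroids exposed to agents for seven days before readout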
Settings: spheroids with HUVEC and MSC; for IC50: curve of first compound; for viability, T/C: stronger effect = lower value; active = viability on the fitted dose curve at most 10% of control; inactive = the rest
Text: Multicellular complex tumor spheroid response to DNA repair inhibitors in combination with DNA-damaging drugs
This study explores the anticancer activities of DNA-damaging drugs and inhibitors of DNA damage repair, both as single agents and in combinations. Complex tumor spheroids comprised of malignant cells, endothelial cells and mesenchymal stem cells served as an in vitro model for human solid tumors. This model system incorporates physiologically relevant features and patient-derived or established malignant cell lines with clinically relevant genetic alterations from many tumor types. Twenty-six patient-derived or established malignant cell lines were evaluated representing sarcoma, melanoma, small cell lung cancer (SCLC), non-small cell lung cancer (NSCLC), as well as bladder, ovarian and pancreatic cancers. The concentration ranges selected for each drug and investigational agent were based upon clinically achievable concentrations if the clinical Cmax of the agent was known.
Compounds. The drugs and compounds olaparib (NSC753686), talazoparib (NSC767125), berzosertib (NSC777718), elimusertib (NSC800525), nedisertib (NSC802822), VX-984 (NSC792969), AZD-1390 (NSC803789), temozolomide (NSC362856), topotecan (NSC609699), trabectedin (NSC813783), staurosporine (NSC755774), and gemcitabine (NSC613327) were obtained from the National Cancer Institute (NCI) Developmental Therapeutics Program Chemical Repository. The FDA-approved anticancer drug set is available from the Developmental Therapeutics Program at https://dtp.cancer.gov/organization/dscb/obtaining/available_plates.htm. […] The stock solutions were prepared in dimethyl sulfoxide (DMSO, Sigma-Aldrich, St. Louis, MO, cat. D2650) at 400-fold the tested concentration and stored at -70 degrees C. Prior to their use, the stock solutions were diluted in fresh medium and the final DMSO concentration in the assay was 0.25% (v/v). All drugs and investigational agents were tested over a range starting from a high concentration at or near the clinical Cmax and decreasing in half-log increments. If the clinical Cmax for an agent had not been determined, the highest concentration tested was 10 microM.
Cell Lines. The patient-derived cancer cell (PDC) lines: 156681-154-R-J1-PDC, 283228-195-R-J1-PDC, 287954-098-R-J1-PDC, 292921-168-R-J2-PDC, 349418-098-R-PDC, 425362-245-T-J1-PDC, 556581-035-R-J1-PDC, and BL0293-F563-PDC were received from the NCI Patient-Derived Models Repository (PDMR, https://pdmr.cancer.gov). The established cell lines HS-SY-2 (RRID:CVCL_8719), MPNST, and SYO-1 (RRID:CVCL_7146) were obtained from the Sloan Kettering Institute. The alveolar soft parts sarcoma cell line ASPS-1 (RRID:CVCL_S738) was established at the NCI and grown from internal seed stocks. The following established cell lines were purchased from the American Type Culture Collection (ATCC, Manassas, VA): G-401 (ATCC, cat. CRL-1441, RRID:CVCL_0270), SW982 (ATCC, cat. HTB-93, RRID:CVCL_1734), VA-ES-BJ (ATCC, cat. CRL-2138, RRID:CVCL_1785), NCI-H719 (ATCC, cat. CRL-5837, RRID:CVCL_1582), NCI-H196 (ATCC, cat. CRL-5823, RRID:CVCL_1509), NCI-H841 (ATCC, cat. CRL-5845, RRID:CVCL_1595), NCI-H1618 (ATCC, cat. CRL-5879, RRID:CVCL_1480), NCI-H1876 (ATCC, cat. CRL-5902, RRID:CVCL_1503), DMS 114 (ATCC, cat. CRL-2066; RRID:CVCL_1174), NCI-H211 (ATCC, cat. CRL-5824; RRID:CVCL_1529), and SW 1271 (ATCC, cat. CRL-2177, RRID:CVCL_1716). The small cell lung cancer cell line COR-L88 was purchased from Sigma-Aldrich (cat. 92031917-1VL, RRID:CVCL_1141). The non-small cell lung cancer cell lines NCI-H226 (RRID:CVCL_1544) and NCI-H322M (RRID:CVCL_1557) were established at the NCI and grown from internal seed stocks. Pooled donor human umbilical vein endothelial cells (HUVEC, Lonza, cat. CC-2519) and human mesenchymal stem cells (hMSC, Lonza, cat. PT-2501) were purchased from Lonza (Walkersville, MD).
Cell Culture. All cells were maintained in an incubator at 37 degrees C and 5% CO2 with 95% humidity. […]

Cc1sc2c(c1C)C(c1ccc(Cl)cc1)=NC(CC(=O)Nc1ccc(O)cc1)c1nnc(C)n1-2 (stereo not given) + CC[C@@]1(O)C(=O)OCc2c1cc1n(c2=O)Cc2cc3c(CN(C)C)c(O)ccc3nc2-1
inactive: viability, T/C (second compound 0.003 µM, first compound 0.00949 µM) 30.2%
active: viability, T/C (second compound 0.003 µM, first compound 0.03 µM) 3.07% | viability, T/C (second compound 0.003 µM, first compound 0.0949 µM) 0.77% | viability, T/C (second compound 0.003 µM, first compound 0.3 µM) 0.53% | viability, T/C (second compound 0.003 µM, first compound 0.949 µM) 0.42% | viability, T/C (second compound 0.003 µM, first compound 3 µM) 0.44% | viability, T/C (second compound 0.00949 µM, first compound 0.00949 µM) 3.11% | viability, T/C (second compound 0.00949 µM, first compound 0.03 µM) 0.89% | viability, T/C (second compound 0.00949 µM, first compound 0.0949 µM) 0.89% | viability, T/C (second compound 0.00949 µM, first compound 0.3 µM) 0.57% | viability, T/C (second compound 0.00949 µM, first compound 0.949 µM) 0.46% | viability, T/C (second compound 0.00949 µM, first compound 3 µM) 0.57% | viability, T/C (second compound 0.03 µM, first compound 0.00949 µM) 0.97% | viability, T/C (second compound 0.03 µM, first compound 0.03 µM) 0.72% | viability, T/C (second compound 0.03 µM, first compound 0.0949 µM) 0.81% | viability, T/C (second compound 0.03 µM, first compound 0.3 µM) 0.54% | viability, T/C (second compound 0.03 µM, first compound 0.949 µM) 0.57% | viability, T/C (second compound 0.03 µM, first compound 3 µM) 0.55% | viability, T/C (second compound 0.0949 µM, first compound 0.00949 µM) 0.76% | viability, T/C (second compound 0.0949 µM, first compound 0.03 µM) 0.8% | viability, T/C (second compound 0.0949 µM, first compound 0.0949 µM) 0.73% | viability, T/C (second compound 0.0949 µM, first compound 0.3 µM) 0.79% | viability, T/C (second compound 0.0949 µM, first compound 0.949 µM) 0.59% | viability, T/C (second compound 0.0949 µM, first compound 3 µM) 0.6% | viability, T/C (second compound 0.3 µM, first compound 0.00949 µM) 0.94% | viability, T/C (second compound 0.3 µM, first compound 0.03 µM) 0.9% | viability, T/C (second compound 0.3 µM, first compound 0.0949 µM) 0.83% | viability, T/C (second compound 0.3 µM, first compound 0.3 µM) 0.85% | viability, T/C (second compound 0.3 µM, first compound 0.949 µM) 0.54% | viability, T/C (second compound 0.3 µM, first compound 3 µM) 0.51%
< 9.49 nM: IC50 (second compound 0.003 µM) | IC50 (second compound 0.00949 µM) | IC50 (second compound 0.03 µM) | IC50 (second compound 0.0949 µM) | IC50 (second compound 0.3 µM)

Source: PubChem BioAssay AID1845209 (Molecular Pharmacology Branch, DTP, NCI, 2023)
